Reference: article PMC10537604, “Development and Assessment of 1,5–Diarylpyrazole/Oxime Hybrids Targeting EGFR and JNK–2 as Antiproliferative Agents: A Comprehensive Study through Synthesis, Molecular Docking, and Evaluation” (Molecules, 2023)
pIC50: −log10 of the molar value. Where two headings read alike, the source gives them in different places.

What was measured:
EGFR tyrosine kinase = biological target: EGFR tyrosine kinase; parameters: method as in doi:10.21608/jabps.2021.77469.1129, PMID 24731281; conditions: literature values ref [4],[29]; read-out: EGFR tyrosine kinase inhibitory activity IC50; cited from earlier work
[1] = system: human cervical cancer cell line Hela; assay: WST-8 antiproliferative assay, Hela; format: cell-based
Description: (§1) Compounds 7a–j, 8a–j, 9a–c, and 10a–c were evaluated for in vitro anticancer activities against five different cancer cell lines, namely, human colorectal adenocarcinoma cell lines DLD-1, human cervical cancer cell line Hela, human pancreatic cancer cell line SUIT-2, human myelogenous leukemia cell line K562, and human hepatocellular carcinoma cell line HepG2 using WST-8 assay at concentrations of 100 µM to investigate the growth inhibition percent (GI%) of each compound using daunorubicin as a reference drug. […]. […] So, as a conclusion on the SAR study of those compounds as antiproliferative agents, the oxime moiety potentiated the anticancer activity and electron donating groups on R1 and R2 played an important role on this activity. Moreover, the sulfamoyl moiety on R3 seems to play a potential role in the activity of the prepared compounds (Table 1).
(§2) All selected compounds and daunorubicin were recorded as the minimum concentration required to inhibit half cell growth (IC50) and the results are listed in Table 2.
(§3) Evaluation of anticancer activity was performed according to the standard water-soluble tetrazolium-8 (WST-8) assay at the Faculty of Engineering, Yamagata University, Yonezawa, Japan, using an MTP-310 absorbance microplate reader. The EGFR inhibitory assay was carried out at the Faculty of Engineering, Yamagata University, Yonezawa, Japan, according to the protocol enzyme linked immunosorbent assay (ELISA) kits (Douset sandwich ELISA test, recombinant mouse EGFR). The JNK-2 inhibitory assay was performed at the Faculty of Engineering, Yamagata University, Yonezawa, Japan, according to the protocol of enzyme-linked immunosorbent assay (ELISA), the assay was carried out using the JNK-2 kit (Simple Step ELISA, pT183/Y185, Abcam Company, Cambridge, CB2 0AX, UK). Apoptosis and cell cycle analysis was performed at Faculty of medicine, Yamagata University, Yamagata, Japan, using BD FACS melody. Molecular docking was performed at the Nano Medical Engineering Laboratory, RIKEN Cluster for Pioneering Researchers, RIEKN, Japan, using ICM-Pro 3.8 software (MolSoft L.L.C., San Diego, CA, USA).
(§4) According to the standard water-soluble tetrazolium-8 (WST-8) assay, the current synthesized compounds have been tested for their anticancer activities against different five cancer cell lines; DLD-1, Hela, K562, SUIT-2, and HepG2 and daunorubicin was used as reference drug by the WST-8 assay. The five cells were maintained in a suspension culture, (Dulbecco’s modified eagle medium (DMEM) for SUIT-2, Hela, and HepG2 or PRIM for K562 and DLD), supplemented with 5% FBS (Fetal Bovine Serum) containing 1% of a penicillin-streptomycin (1:1) mixture. A 100 μL aliquot of cells (10,000 cells/mL) was added to a 96 well plate and incubated for 24 h at 37 °C in a humidified incubator containing 5% CO2 in the air. […] Then A 10 μL WST-8 solution (mixture of WST-8 and 1-methoxy PMS) was added to each well and the incubation continued for 3 h. The visible absorbance at 450 nm and 630 nm as the reference wavelength of each well was quantified using an MTP-310 absorbance microplate reader. Daunorubicin was used as a positive control. The results of cytotoxicity were recorded as growth inhibition percentages and as IC50 values.

[2] = system: human myelogenous leukemia cell line K562; assay: WST-8 antiproliferative assay, K562; format: cell-based
Description: as §1, §2, §3, §4

[3] = system: PC12 (rat adrenal-derived pheochromocytoma cells); assay: WST-8 cytotoxicity towards normal cell line PC12; format: cell-based; conditions: Rattus norvegicus, PC-12, read-out: percentage growth inhibition PC12
Description: The evaluation of normal cell viability is fundamental in analyzing the efficacy of target compounds and is often used in conjunction with cytotoxicity tests to help understand how target compound toxicity affects normal cell health. […] A 100 μL aliquot of cells (10,000 cells/mL) was added to a 96 well plate and incubated for 24 h at 37 °C in a humidified incubator containing 5% CO2 in the air. […] Then, a 10 μL WST-8 solution (mixture of WST-8 and 1-methoxy PMS) was added to each well and the incubation continued for 3 h. The visible absorbance at 450 nm and 630 nm as the reference wavelength of each well was quantified using an MTP-310 absorbance microplate reader. Daunorubicin was used as a positive control. The results of cytotoxicity were recorded as growth inhibition percentages and as IC50 values.

[4] = system: human pancreatic cancer cell line SUIT-2; assay: WST-8 antiproliferative assay, SUIT-2; format: cell-based
Description: as §1, §2, §3
(§5) According to the standard water-soluble tetrazolium-8 (WST-8) assay, the current synthesized compounds have been tested for their anticancer activities against different five cancer cell lines; DLD-1, Hela, K562, SUIT-2, and HepG2 and daunorubicin was used as reference drug by the WST-8 assay. The five cells were maintained in a suspension culture, (Dulbecco’s modified eagle medium (DMEM) for SUIT-2, Hela, and HepG2 or PRIM for K562 and DLD), supplemented with 5% FBS (Fetal Bovine Serum) containing 1% of a penicillin-streptomycin (1:1) mixture. A 100 μL aliquot of cells (10,000 cells/mL) was added to a 96 well plate and incubated for 24 h at 37 °C in a humidified incubator containing 5% CO2 in the air. After 24 h, a 10 μL aliquot of test compound (concentrations varying in the range of 10–150 µM) was added to each of the 96 wells and incubated for 24 h. Then A 10 μL WST-8 solution (mixture of WST-8 and 1-methoxy PMS) was added to each well and the incubation continued for 3 h. The visible absorbance at 450 nm and 630 nm as the reference wavelength of each well was quantified using an MTP-310 absorbance microplate reader. Daunorubicin was used as a positive control. The results of cytotoxicity were recorded as growth inhibition percentages and as IC50 values.

[5] = system: human hepatocellular carcinoma cell line HepG2; assay: WST-8 antiproliferative assay, HepG2; format: cell-based
Description: as §1, §2, §3, §5

[6] = system: human colorectal adenocarcinoma cell line DLD-1; assay: WST-8 antiproliferative assay, DLD-1; format: cell-based
Description: as §1, §2, §3, §5

For `COc1ccc(-c2cc(-c3ccc(C)c(C)c3)nn2C(N)=S)cc1` [Compound I], the pIC50 (EGFR tyrosine kinase) is listed as 7.15.
In the case of `COc1cccc2c1C(=O)c1c(O)c3c(c(O)c1C2=O)C[C@@](O)(C(C)=O)C[C@@H]3O[C@H]1C[C@H](N)[C@H](O)[C@H](C)O1` [Daunorubicin, daunorubicin, reference compound], the inhibition at 100 µM ([1]; read-out: Growth Inhibition (GI%) Hela) was 100%, the pIC50 ([1]; read-out: IC50 Hela) was 7.01 and the inhibition at 100 µM ([2]; Homo sapiens, K562, read-out: Growth Inhibition (GI%) K562) was 100%. The pIC50 ([2]; Homo sapiens, K562, read-out: IC50 K562, WST-8 assay, six concentrations 1-100 µM) was 4.89, the pIC50 ([2]; read-out: IC50 K562, WST-8 assay, six concentrations 1-100 µM) was 4.88 and the inhibition at 1 µM [3] was 81%. The inhibition at 50 µM [3] was 107%, the inhibition at 100 µM [3] was 113% and the inhibition at 100 µM ([4]; SUIT-2, read-out: Growth Inhibition (GI%) SUIT-2) was 92%. The pIC50 ([4]; SUIT-2, read-out: IC50 SUIT-2) was 5.05, the inhibition at 100 µM ([5]; HepG2, read-out: Growth Inhibition (GI%) HepG2) was 100% and the pIC50 ([5]; HepG2, read-out: IC50 HepG2) was 4.66. For the same molecule, the inhibition at 100 µM ([6]; DLD-1, read-out: Growth Inhibition (GI%) DLD-1) was 82.5% and the pIC50 ([6]; DLD-1, read-out: IC50 DLD-1) was 4.52.
In the case of `Cc1ccc(-c2cc(-c3ccc4ccccc4c3)n(C3=NC(=O)CS3)n2)cc1C` [II], the pIC50 (EGFR tyrosine kinase) is given as 7.22.
